Reference: US4610976A, “Porcine GRF” (The Salk Institute for Biological Studies, priority 1983, dated 1986)

System: cells of rat pituitary glands
Test: in vitro growth hormone release assay in rat pituitary cell monolayer cultures (ir GH by radioimmunoassay)
Type: cell-based
Conditions: equimolar concentrations, side-by-side with synthetic hGRF(1-44)-NH2; incubation 3 to 4 hours; ir GH in culture medium
Description: To determine the effectiveness of the peptide to promote the release of growth hormone, in vitro assays are carried out using synthetic hGRF(1-44)-NH2 in side-by-side comparison with equimolar concentrations of the extracted and purified pGRF(1-44) of Example II and of a GRF Reference Standard having a known effectiveness to promote the release of growth hormone from pituitary cells. The GRF Reference standard is described and defined in Brazeau, et al., Endocrinology, Vol. 110, A538(1982) and is an amount of a preparation of rat hypothalamic origin that produces a half-maximal response in terms of GH release in a pituitary cell monolayer bioassay. Cultures are used which include cells of rat pituitary glands removed some four to five days previously. Both cultures of a defined standard medium and cultures which are considered optimal for the secretion of growth hormone are used for the comparative testing, in the general manner described in Brazeau, et al. Regulatory Peptides, 1, 255, 1981. Incubation with the substance to be tested is carried out for 3 to 4 hours, and aliquots of the culture medium are removed and processed to measure their contents in inmunoreactive GH(ir GH) by a well-characterized radioimmunoassay.

Question: With “Tyr-Ala-Asp-Ala-Ile-Phe-Thr-Asn-Ser-Tyr-Arg-Lys-Val-Leu-Gly-Gln-Leu-Ser-Ala-Arg-Lys-Leu-Leu-Gln-Asp-Ile-Met-Ser-Arg-Gln-Gln-Gly-Glu-Arg-Asn-Gln-Glu-Gln-Gly-Ala-Arg-Val-Arg-Leu (YADAIFTNSYRKVLGQLSARKLLQDIMSRQQGERNQEQGARVRL; printed: Tyr-Ala-Asp-Ala-Ile-Phe-Thr-Asn-Ser-Tyr-Arg-Lys-Val-Leu-Gly-Gln-Leu-Ser-Ala-Arg-Lys-Leu-Leu-Gln-Asp-Ile-Met-Ser-Arg-Gln-Gln-Gly-Glu-Arg-Asn-Gln-Glu-Gln-Gly-Ala-Arg-Val-Arg-Leu) [pGRF(1-44), 44-residue polypeptide isolated from purified extracts of porcine hypothalami]” as the substance, how does the “intrinsic biological activity to promote the release of growth hormone, compared with synthetic hGRF(1-44)-NH2” value read?
Answer: full intrinsic biological activity of the synthetic peptide

Question: And the “potency to promote the release of growth hormone, compared with synthetic hGRF(1-44)-NH2” value?
Answer: close to the same potency
